Experiments:
Rattus norvegicus = organism: Rattus norvegicus; assay: PD2 value was calculated as -log value of the concentration of the test compound to inhibit 60 mM KCl-induced contractions to 50% expressed as calcium antagonistic activity; format: functional
Canis familiaris [1] = organism: Canis familiaris; assay: Concentration of the test compound required to inhibit the auto oxidative lipid peroxidations in canine brain homogenates by 50% was determined; format: functional; settings: Canis lupus familiaris
Canis familiaris [2] = organism: Canis familiaris; assay: Inhibitory activity against KCl induced contractile response in isolated canine mesenteric artery was determined expressed as vasodilation effect; format: functional, Canis lupus familiaris
Canis familiaris [3] = organism: Canis familiaris; assay: Inhibitory activity against KCl induced contractile response in isolated canine coronary artery was determined expressed as vasodilation effect; format: functional, Canis lupus familiaris
Canis familiaris [4] = organism: Canis familiaris; assay: Inhibitory activity against KCl induced contractile response in isolated canine basilar artery was determined expressed as vasodilation effect; format: functional, Canis lupus familiaris
Canis familiaris [5] = organism: Canis familiaris; assay: Inhibitory activity against KCl induced contractile response in isolated canine renal artery was determined expressed as vasodilation effect; format: functional, Canis lupus familiaris

| Compound | IC50 (Canis familiaris [1]) [µM] | PD2 (Rattus norvegicus) | PD2 (Canis familiaris [2]) | PD2 (Canis familiaris [3]) | PD2 (Canis familiaris [4]) | PD2 (Canis familiaris [5]) |
| --- | --- | --- | --- | --- | --- | --- |
| CN(CC(O)CN1CCN(CCCC(c2ccc(F)cc2)c2ccc(F)cc2)CC1)c1ccccc1 (centres undefined) | 19 | 5.83 | – | – | – | – |
| CC(=O)N(CC(O)CN1CCN(CCCC(c2ccc(F)cc2)c2ccc(F)cc2)CC1)c1ccccc1 (centres undefined) | 390 | 5.98 | – | – | – | – |
| Cc1c(C)c2c(c(C)c1O)CC[C@@](C)(CCC[C@H](C)CCC[C@H](C)CCCC(C)C)O2 [ALPHA-TOCOPHEROL] | 1.5 | – | – | – | – | – |
| OC(CNc1ccccc1)CN1CCN(CCCC(c2ccc(F)cc2)c2ccc(F)cc2)CC1 (centres undefined) | 6.5 | 6.7 | 6.1 | 6.32 | 6.76 | 6.27 |
| Fc1ccc(C(c2ccc(F)cc2)N2CCN(C/C=C/c3ccccc3)CC2)cc1 [FLUNARIZINE] | – | 5.98 | – | – | – | – |
| OC(CSCc1ccccc1)CN1CCN(CCCC(c2ccc(F)cc2)c2ccc(F)cc2)CC1 (centres undefined) | 28 | 6.93 | – | – | – | – |
| OC(CNCc1ccccc1)CN1CCN(CCCC(c2ccc(F)cc2)c2ccc(F)cc2)CC1 (centres undefined) | 6.9 | 5.85 | – | – | – | – |

Further lines, with some results ahead:

| IC50 (Canis familiaris [1]) [µM] | Compound | PD2 (Rattus norvegicus) | PD2 (Canis familiaris [2]) | PD2 (Canis familiaris [3]) | PD2 (Canis familiaris [4]) | PD2 (Canis familiaris [5]) |
| --- | --- | --- | --- | --- | --- | --- |
| 15 | OC(CSc1ccccc1)CN1CCN(CCCC(c2ccc(F)cc2)c2ccc(F)cc2)CC1 (centres undefined) | 6.79 | 5.8 | 6.38 | 7 | 5.73 |
| 20 | CC(=O)OC(CSc1ccccc1)CN1CCN(CCCC(c2ccc(F)cc2)c2ccc(F)cc2)CC1 (centres undefined) | 6.55 | – | – | – | – |
| 13 | CC(=O)OC(CNc1ccccc1)CN1CCN(CCCC(c2ccc(F)cc2)c2ccc(F)cc2)CC1 (centres undefined) | 6.38 | – | – | – | – |
| 15 | COC(CNc1ccccc1)CN1CCN(CCCC(c2ccc(F)cc2)c2ccc(F)cc2)CC1 (centres undefined) | – | – | – | – | – |
| 20 | COC(CSc1ccccc1)CN1CCN(CCCC(c2ccc(F)cc2)c2ccc(F)cc2)CC1 (centres undefined) | 6.69 | – | – | – | – |
